# Results reported in ChEMBL document CHEMBL5523737, “Novel Jatrophane Diterpenoids from Euphorbia esula Promotes Lipid Clearance by Transcriptional Regulation of PCSK9” (J Med Chem, 2024).
# Calls of active or inactive are those of the source. No cut-off for these calls is given here.
# Assays:
# [1] = target: Proprotein convertase subtilisin/kexin type 9 (Homo sapiens) (UniProt Q8NBP7); experiment: Inhibition of PCSK9 transcription in human HepG2 cells at 5 uM by AlphaLISA method; format: cell-based
# [2] = target: Proprotein convertase subtilisin/kexin type 9 (Homo sapiens) (UniProt Q8NBP7); experiment: Inhibition of PCSK9 transcription in human HepG2 cells by AlphaLISA method; format: cell-based
# [3] = tested on: HepG2; experiment: Induction of LDL uptake in HNF1alpha knockdown human HepG2 cells at 5 uM incubated for 3 hrs under dark condition by DiI-LDL DMEM staining based fluorescence microplate reader assay; format: functional, cell-based
# [4] = target: Proprotein convertase subtilisin/kexin type 9 (Homo sapiens) (UniProt Q8NBP7); experiment: Inhibition of PCSK9 (unknown origin) promoter activity expressed in HEK293 cells co-transfected with SV40 at 5 to 10 uM incubated for 24 hrs by dual luciferase assay; format: cell-based; conditions: dose 5-10 µM
# [5] = Cytotoxicity against human HepG2 cells assessed as cell viability at 20 uM after 24 hrs by CCK8 assay; format: toxicity, cell-based; conditions: read-out: Activity
# [6] = tested on: HepG2; experiment: Induction of LDL uptake in human HepG2 cells incubated for 3 hrs under dark condition by DiI-LDL DMEM staining based fluorescence microplate reader assay; format: functional, cell-based
# [7] = tested on: HepG2; experiment: Inhibition of HNF1alpha nuclear transport in human HepG2 cells at 1 to 10 uM after 24 hrs by Western blotting analysis; format: functional, cell-based; conditions: dose 1-10 µM
# [8] = Hepatotoxicity in HFD induced C57BL/6 mouse assessed as decrease in serum ALT level at 10 to 30 mg/kg, ip administered for 3 weeks; format: toxicity, organism-based; conditions: in vivo, 504 h, dose 10-30 mg/kg
# [9] = tested on: Mus musculus; experiment: Downregulation of PCSK9 protein level in HFD induced C57BL/6 mouse liver at 10 to 30 mg/kg, ip administered for 3 weeks by Western blotting analysis; format: functional, organism-based; conditions: dose 10-30 mg/kg
# [10] = target: Proprotein convertase subtilisin/kexin type 9 (Homo sapiens) (UniProt Q8NBP7); experiment: Inhibition of PCSK9 (unknown origin) promoter activity expressed in HNF1alpha knockdown HEK293 cells co-transfected with SV40 incubated for 24 hrs by dual luciferase assay; format: cell-based
# [11] = tested on: HepG2; experiment: Downregulation of PCSK9 mRNA level in human HepG2 cells by qRT-PCR analysis; format: functional, cell-based; conditions: dose 1-20 µM
# [12] = tested on: Mus musculus; experiment: Hypolipidemic activity in HFD induced C57BL/6 mouse assessed as reduction in serum VLDL-C level at 10 to 30 mg/kg, ip administered for 3 weeks; format: functional, organism-based; conditions: dose 10-30 mg/kg
# [13] = tested on: HepG2; experiment: Downregulation of PCSK9 protein level in HNF1alpha knockdown human HepG2 cells at 10 uM incubated for 24 hrs by Western blotting analysis; format: functional, cell-based
# [14] = Hepatotoxicity in HFD induced C57BL/6 mouse assessed as decrease in liver index at 10 to 30 mg/kg, ip administered for 3 weeks; format: toxicity, organism-based; conditions: in vivo, 504 h, dose 10-30 mg/kg
# [15] = tested on: Hepatocyte; experiment: Downregulation of PCSK9 mRNA level in HFD treated mouse hepatocytes at 5 to 20 uM incubated for 24 hrs by qRT-PCR analysis; format: functional, cell-based; conditions: dose 5-20 µM
# [16] = tested on: HepG2; experiment: Downregulation of PCSK9 protein level in human HepG2 cells at 5 uM after 3 hrs by Western blotting analysis; format: functional, cell-based
# [17] = tested on: Mus musculus; experiment: Hypolipidemic activity in HFD induced C57BL/6 mouse assessed as reduction in serum TC level at 10 to 30 mg/kg, ip administered for 3 weeks; format: functional, organism-based; conditions: dose 10-30 mg/kg
# [18] = tested on: Mus musculus; experiment: Hypolipidemic activity in HFD induced C57BL/6 mouse assessed as reduction in serum TG level at 10 to 30 mg/kg, ip administered for 3 weeks; format: functional, organism-based; conditions: dose 10-30 mg/kg
# [19] = tested on: Mus musculus; experiment: Upregulation of […] protein level in HFD induced C57BL/6 mouse liver at 10 to 30 mg/kg, ip administered for 3 weeks by Western blotting analysis; format: functional, organism-based; conditions: dose 10-30 mg/kg
# [20] = Nephrotoxicity in HFD induced C57BL/6 mouse assessed as change in serum CREA level at 10 to 30 mg/kg, ip administered for 3 weeks; format: toxicity, organism-based; conditions: in vivo, 504 h, dose 10-30 mg/kg
# [21] = tested on: Hepatocyte; experiment: Downregulation of PCSK9 protein level in HFD treated mouse hepatocytes at 5 to 20 uM incubated for 24 hrs by Western blotting analysis; format: functional, cell-based; conditions: dose 5-20 µM
# [22] = target: Hepatocyte nuclear factor 1-alpha (Homo sapiens) (UniProt P20823); experiment: Binding affinity to HNF1alpha in human HepG2 cells assessed as increase in thermal stability at 10 uM after 1 hr by CETSA; format: cell-based
# [23] = tested on: Mus musculus; experiment: Hypolipidemic activity in HFD induced C57BL/6 mouse assessed as reduction in serum LDL-C level at 10 to 30 mg/kg, ip administered for 3 weeks; format: functional, organism-based; conditions: dose 10-30 mg/kg
# [24] = target: Proprotein convertase subtilisin/kexin type 9 (Homo sapiens) (UniProt Q8NBP7); experiment: Inhibition of PCSK9 (unknown origin) promoter activity expressed in HEK293 cells co-transfected with SV40 incubated for 24 hrs by dual luciferase assay; format: cell-based; conditions: dose 1-20 µM
# [25] = tested on: HepG2; experiment: Effect on HNF1alpha protein level in human HepG2 cells at 5 uM incubated for 24 hrs by Western blotting analysis; format: functional, cell-based
# [26] = Effect on HEK293 cell viability at 20 uM; format: toxicity, cell-based; conditions: human, hek293, 20 µM
# [27] = Toxicity in HFD induced C57BL/6 mouse assessed as change in food intake at 10 to 30 mg/kg, ip administered for 3 weeks; format: organism-based; conditions: in vivo, 504 h, dose 10-30 mg/kg
# [28] = Nephrotoxicity in HFD induced C57BL/6 mouse assessed as change in serum UREA level at 10 to 30 mg/kg, ip administered for 3 weeks; format: toxicity, organism-based; conditions: in vivo, 504 h, dose 10-30 mg/kg
# [29] = tested on: HepG2; experiment: Upregulation of LDLR protein level in human HepG2 cells at 5 uM after 6 hrs by Western blotting analysis; format: functional, cell-based
# [30] = tested on: HepG2; experiment: Upregulation of LDLR mRNA level in human HepG2 cells by qRT-PCR analysis; format: functional, cell-based
# [31] = tested on: HepG2; experiment: Induction of LDL uptake in human PCSK9 knockdown HepG2 cells at 5 uM incubated for 3 hrs under dark condition by DiI-LDL DMEM staining based fluorescence microplate reader assay; format: functional, cell-based
# [32] = tested on: HepG2; experiment: Upregulation of LDLR mRNA level in HNF1alpha knockdown human HepG2 cells incubated for 24 hrs by qRT-PCR analysis; format: functional, cell-based
# [33] = target: Proprotein convertase subtilisin/kexin type 9 (Homo sapiens) (UniProt Q8NBP7); experiment: Inhibition of PCSK9 (unknown origin) promoter activity expressed in HNF1alpha overexpressed HEK293 cells co-transfected with SV40 incubated for 24 hrs by dual luciferase assay; format: cell-based
# [34] = tested on: HepG2; experiment: Upregulation of LDLR protein level in human HepG2 cells by Western blotting analysis; format: functional, cell-based
# [35] = tested on: HepG2; experiment: Downregulation of PCSK9 mRNA level in HNF1alpha knockdown human HepG2 cells incubated for 24 hrs by qRT-PCR analysis; format: functional, cell-based
# [36] = Hepatotoxicity in HFD induced C57BL/6 mouse assessed as decrease in serum AST level at 10 to 30 mg/kg, ip administered for 3 weeks; format: toxicity, organism-based; conditions: in vivo, 504 h, dose 10-30 mg/kg
# [37] = tested on: HepG2; experiment: Downregulation of PCSK9 protein level in human HepG2 cells by Western blotting analysis; format: functional, cell-based; conditions: dose 1-20 µM
# [38] = tested on: HepG2; experiment: Induction of LDL uptake in human LDLR knockdown HepG2 cells at 5 uM incubated for 3 hrs under dark condition by DiI-LDL DMEM staining based fluorescence microplate reader assay; format: functional, cell-based
# [39] = tested on: HepG2; experiment: Upregulation of LDLR protein level in HNF1alpha knockdown human HepG2 cells at 10 uM incubated for 24 hrs by Western blotting analysis; format: functional, cell-based
# Chain of Hepatocyte nuclear factor 1-alpha (Homo sapiens) (P20823 whole entry): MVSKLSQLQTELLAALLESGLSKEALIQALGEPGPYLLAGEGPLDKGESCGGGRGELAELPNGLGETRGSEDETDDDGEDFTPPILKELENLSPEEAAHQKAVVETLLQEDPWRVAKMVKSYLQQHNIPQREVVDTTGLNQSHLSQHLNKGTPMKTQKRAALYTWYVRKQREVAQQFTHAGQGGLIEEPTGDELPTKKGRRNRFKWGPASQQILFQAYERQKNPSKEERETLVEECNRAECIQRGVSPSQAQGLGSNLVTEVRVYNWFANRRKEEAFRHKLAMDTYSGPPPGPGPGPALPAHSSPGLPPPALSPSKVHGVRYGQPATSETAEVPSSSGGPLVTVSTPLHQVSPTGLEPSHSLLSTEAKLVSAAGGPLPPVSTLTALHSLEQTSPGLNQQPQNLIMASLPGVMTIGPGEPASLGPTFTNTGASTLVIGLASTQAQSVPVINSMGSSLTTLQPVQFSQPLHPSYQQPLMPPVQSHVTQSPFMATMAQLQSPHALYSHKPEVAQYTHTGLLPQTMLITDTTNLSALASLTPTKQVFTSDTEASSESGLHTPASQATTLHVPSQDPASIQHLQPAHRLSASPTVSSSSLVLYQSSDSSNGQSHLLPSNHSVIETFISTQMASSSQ
structure (smiles),measurement,setting,value
C=C1[C@@H](OC(C)=O)[C@H]2[C@@H](OC(C)=O)[C@](C)(OC(C)=O)C[C@]2(OC(C)=O)C(=O)[C@H](C)[C@]2(C)O[C@H]2C(C)(C)[C@H](OC(C)=O)[C@@H](OC(C)=O)[C@H]1OC(=O)C(C)C,inhibition,[1],1.2%
C=C1[C@@H](OC(C)=O)[C@H]2[C@@H](OC(C)=O)[C@](C)(OC(=O)Cc3ccccc3)C[C@]2(OC(C)=O)C(=O)[C@H](C)/C=C/C(C)(C)[C@H](OC(=O)c2cccnc2)C[C@H]1OC(=O)C(C)C,inhibition,[2],Dose-Dependent Effect
same,Activity,[3],Active
same,inhibition,[4],Active
same,"viability at 24 h, 20 µM",[5],> 95%
same,inhibition,[1],56.1%
same,Activity,[6],Active
C=C1[C@@H](OC(C)=O)[C@H]2[C@@H](OC(=O)[C@@H](C)CC)[C@@H](C)C[C@]2(OC(C)=O)C(=O)[C@H](C)/C=C/C(C)(C)[C@H](OC(C)=O)[C@@H](OC(C)=O)[C@H]1OC(C)=O,inhibition,[2],Dose-Dependent Effect
same,Activity,[3],Active
same,inhibition,[4],Active
same,"viability at 24 h, 20 µM",[5],> 95%
same,inhibition,[1],56.1%
same,Activity,[6],Active
C=C1[C@@H](OC(C)=O)[C@H]2[C@@H](OC(C)=O)[C@@H](C)C[C@]2(OC(C)=O)C(=O)[C@H](C)/C=C/C(C)(C)C(=O)C[C@H]1OC(C)=O,inhibition,[7],Active
same,inhibition,[2],Dose-Dependent Effect
same,Activity,[3],inactive
same,Activity,[8],Non-Toxic
same,Activity,[9],Active
same,inhibition,[10],inactive
same,Activity,[11],Dose-Dependent Effect
same,Activity,[12],Active
same,Activity,[13],inactive
same,Activity,[14],Toxic
same,Activity,[15],Active
same,Activity,[16],Active
same,Activity,[17],Active
same,Activity,[18],Active
same,Activity,[19],Active
same,Activity,[20],Non-Toxic
same,Activity,[21],Active
same,Activity,[22],Active
same,Activity,[23],Active
same,inhibition,[24],Dose-Dependent Effect
same,Activity,[25],inactive
same,Activity,[26],Non-Toxic
same,Activity,[27],Non-Toxic
same,Activity,[28],Non-Toxic
same,Activity,[29],Active
same,Activity,[30],Dose-Dependent Effect
same,Activity,[31],Active
same,Activity,[32],inactive
same,inhibition,[33],Active
same,Activity,[34],Dose-Dependent Effect
same,Activity,[35],inactive
same,Activity,[36],Toxic
same,Activity,[37],Dose-Dependent Effect
same,"viability at 24 h, 20 µM",[5],> 95%
same,Activity,[38],inactive
same,inhibition,[1],36.4%
same,Activity,[6],Dose-Dependent Effect
same,Activity,[39],inactive
C=C1[C@@H](OC(C)=O)[C@H]2[C@@H](OC(C)=O)[C@](C)(OC(C)=O)C[C@]2(OC(C)=O)C(=O)[C@H](C)/C=C/C(C)(C)C(=O)[C@@H](OC(=O)C(C)C)[C@H]1OC(=O)C(C)C,inhibition,[2],Dose-Dependent Effect
same,"viability at 24 h, 20 µM",[5],> 95%
same,inhibition,[1],30.4%
same,Activity,[6],Active
C=C1[C@@H](OC(C)=O)[C@H]2[C@@H](OC(C)=O)[C@@H](C)C[C@]2(OC(C)=O)C(=O)[C@H](C)/C=C/C(C)(C)[C@H](OC(C)=O)[C@@H](OC(C)=O)[C@H]1OC(C)=O,inhibition,[1],0.1%
C=C1[C@@H](OC(C)=O)[C@H]2[C@@H](OC(C)=O)[C@@H](C)C[C@]2(OC(C)=O)C(=O)[C@H](C)/C=C/C(C)(C)C(=O)[C@@H](OC(C)=O)[C@H]1OC(C)=O,inhibition,[1],< 1%
